Measured values: patent publication US20240122179A1, “AUXINIC HERBICIDES AND METHODS OF USE THEREOF” (CORTEVA AGRISCIENCE LLC, priority 2021, published 2024)
Where two headings read alike, the source gives them in different places.

Columns and labels:
Test in all cases: Postemergence herbicide evaluation, percent reduction in plant size vs untreated control, 21 days after treatment
[1] = tested on: Ambrosia artemisiifolia (AMBEL); type: in vivo, Ambrosia artemisiifolia (common ragweed); settings: post-emergence, 504 h, AMBEL, postemergence, read-out: Control/Injury; for pest or weed control at 140 g/ha: rate 140 g ae/ha; for pest or weed control at 280 g/ha: rate 280 g ae/ha
Outline: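 Greenhouse-grown plants (25–28 °C, 16 h light) were sprayed postemergence at the 2–8 leaf stage with 140 or 280 g ae/ha in acetone/DMSO-based spray solution with crop oil and surfactant, at 187 L/ha by track sprayer. There were 3–4 replicates. Plant size was measured 21 days after treatment versus untreated plants.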

[2] = tested on: Conyza canadensis (L.) (ERICA); type: in vivo, Conyza canadensis (L.) (Horseweed); settings: Erigeron canadensis, post-emergence, 504 h, ERICA, postemergence, read-out: Control/Injury; for pest or weed control at 140 g/ha: rate 140 g ae/ha; for pest or weed control at 280 g/ha: rate 280 g ae/ha
Outline: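 Horseshoe-weed (horseweed) seedlings at 2 to 8 leaf stage in greenhouse (25-28° C, 16 h light), sprayed postemergence at 140 or 280 g ae/ha in acetone/DMSO-based spray solution, 187 L/ha track-sprayer. Randomized complete block, 3-4 replicates; plant size measured 21 days after treatment as percent reduction vs untreated controls.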

[3] = tested on: Amaranthus palmeri (AMAPA); type: in vivo, Amaranthus palmeri (Palmer amaranth); settings: post-emergence, 504 h, postemergence, read-out: Control/Injury; for pest or weed control at 140 g/ha: rate 140 g ae/ha; for pest or weed control at 280 g/ha: rate 280 g ae/ha
Outline: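 Greenhouse-grown Palmer amaranth (25 to 28° C, 16 h light) sprayed postemergence at the 2 to 8 leaf stage with 140 or 280 g ae/ha in acetone/DMSO-based solution containing crop oil concentrate, 187 L/ha by track sprayer. Three to four replicates; plant size measured 21 days after treatment as percent reduction versus untreated control.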

[4] = tested on: Amaranthus rudis (AMATA); type: in vivo, Amaranthus rudis (tall water hemp); settings: Amaranthus tuberculatus, post-emergence, 504 h, AMATA, postemergence, read-out: Control/Injury; for pest or weed control at 140 g/ha: rate 140 g ae/ha; for pest or weed control at 280 g/ha: rate 280 g ae/ha
Outline: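 Greenhouse-grown tall waterhemp (25-28° C, 16 h light) at the 2-8 leaf stage, treated by track sprayer at 187 L/ha with compound at 140 or 280 g ae/ha in acetone/DMSO-based spray solution with crop oil and surfactant. 3-4 replicates per treatment, randomized complete block; plant size reduction versus untreated control measured 21 days after treatment.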

[5] = tested on: Kochia scoparia (KCHSC); type: in vivo; settings: Bassia scoparia, post-emergence, 504 h, KCHSC, postemergence, read-out: Control/Injury; for pest or weed control at 140 g/ha: rate 140 g ae/ha; for pest or weed control at 280 g/ha: rate 280 g ae/ha
Outline: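 Greenhouse-grown plants (25-28 °C, 16 h light) at the 2 to 8 leaf stage were track-sprayed postemergence at 140 or 280 g ae/ha in acetone/DMSO-based spray solution with crop oil and surfactant, at 187 L/ha, in 3-4 randomized replicates.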

[6] = percent reduction vs untreated, 21 days after treatment
[7] = R-AMAPA, percent reduction vs untreated control, 21 days after treatment
[8] = percent reduction vs untreated control, 21 days after treatment

| Structure (SMILES) | pest or weed control at 140 g/ha [1] [%] | pest or weed control at 280 g/ha [1] [%] | pest or weed control at 140 g/ha [2, 6] [%] | pest or weed control at 280 g/ha [2, 6] [%] | pest or weed control at 140 g/ha [3, 7] [%] | pest or weed control at 280 g/ha [3, 7] [%] | pest or weed control at 140 g/ha [4] [%] | pest or weed control at 280 g/ha [4] [%] | pest or weed control at 140 g/ha [5, 6] [%] | pest or weed control at 280 g/ha [5, 6] [%] | pest or weed control at 140 g/ha [2] [%] | pest or weed control at 280 g/ha [2] [%] | pest or weed control at 140 g/ha ([3]; AMAPA) [%] | pest or weed control at 280 g/ha ([3]; AMAPA) [%] | pest or weed control at 140 g/ha [2, 8] [%] | pest or weed control at 280 g/ha [2, 8] [%] | pest or weed control at 140 g/ha [5] [%] | pest or weed control at 280 g/ha [5] [%] |
| --- | --- | --- | --- | --- | --- | --- | --- | --- | --- | --- | --- | --- | --- | --- | --- | --- | --- | --- |
| COc1c(Cl)ccc(Cl)c1C(=O)O/N=C(\N)CCCC/C(N)=N/OC(=O)c1c(Cl)ccc(Cl)c1OC [Compound A-145] | 88 | 96 | 83 | 78 | 55 | 65 | 60 | 64 | 94 | 91 |  |  |  |  |  |  |  |  |
| COc1c(Cl)ccc(Cl)c1C(=O)O/N=C/c1cc(/C=N/OC(=O)c2c(Cl)ccc(Cl)c2OC)cc(/C=N/OC(=O)c2c(Cl)ccc(Cl)c2OC)c1 [Compound A-99] | 96 | 95 |  |  |  |  | 84 | 78 | 93 | 95 | 97 | 99 | 90 | 80 |  |  |  |  |
| COc1c(Cl)ccc(Cl)c1C(=O)n1ccnc1 [Compound A-126] | 33 | 50 |  |  |  |  | 45 | 55 | 28 | 50 | 15 | 33 | 33 | 35 |  |  |  |  |
| COc1c(Cl)ccc(Cl)c1C(=O)N1CCCCO1 [Compound A-104] | 5 | 15 |  |  |  |  | 73 | 92 | 3 | 13 | 0 | 10 | 45 | 65 |  |  |  |  |
| COc1c(Cl)ccc(Cl)c1C(=O)NNc1ccc([N+](=O)[O-])cc1 [Compound A-132] | 38 | 33 |  |  |  |  | 18 | 18 | 8 | 15 | 23 | 8 | 20 | 30 |  |  |  |  |
| COc1c(Cl)ccc(Cl)c1C(=O)ON(Cc1ccccc1)Cc1ccccc1 [Compound A-72] | 82 | 98 |  |  | 72 | 83 | 63 | 74 |  |  |  |  |  |  | 83 | 92 | 82 | 94 |
| COc1c(Cl)ccc(Cl)c1C(=O)NNc1nc2ccccc2o1 [Compound A-109] | 23 | 20 |  |  |  |  | 2 | 3 | 0 | 3 | 3 | 5 | 8 | 5 |  |  |  |  |
| COc1c(Cl)ccc(Cl)c1C(=O)NOC1CCCCO1 (stereo not shown) [Compound A-100] | 5 | 20 |  |  |  |  | 0 | 19 | 0 | 0 | 8 | 13 | 0 | 15 |  |  |  |  |
| COc1c(Cl)ccc(Cl)c1C(=O)NNCc1ccccc1 [Compound A-111] | 25 | 35 |  |  |  |  | 18 | 28 | 5 | 5 | 8 | 10 | 20 | 33 |  |  |  |  |
| CCCNNC(=O)c1c(Cl)ccc(Cl)c1OC [Compound A-112] | 18 | 38 |  |  |  |  | 13 | 20 | 0 | 18 | 10 | 10 | 18 | 33 |  |  |  |  |
| CCCCCCNC(=O)c1c(Cl)ccc(Cl)c1OC [Compound A-128] | 3 | 5 | 3 | 5 |  |  | 3 | 8 | 0 | 0 |  |  | 3 | 5 |  |  |  |  |
| COc1c(Cl)ccc(Cl)c1C(=O)NOc1ccc([N+](=O)[O-])cc1 [Compound A-97] | 73 | 90 |  |  |  |  | 55 | 68 | 73 | 88 | 18 | 40 | 50 | 65 | 75 | 70 |  |  |
| COc1c(Cl)ccc(Cl)c1C(=O)Nc1ccon1 [Compound A-106] | 25 | 28 |  |  |  |  | 25 | 28 | 3 | 3 | 5 | 10 | 25 | 20 |  |  |  |  |
| COc1c(Cl)ccc(Cl)c1C(=O)n1nc(C)cc1C [Compound A-133] | 3 | 8 | 3 | 3 |  |  | 8 | 5 | 0 | 20 |  |  | 10 | 15 |  |  |  |  |
